Results from patent US12108761B2, “Mesostigmata mite control agent” (MEIJI SEIKA PHARMA CO., LTD., priority 2017, dated 2024).

Columns and labels:
Type in all cases: in vivo
[1] = system: red mites (Dermanyssus gallinae); experiment: Test Example 4: controlling effect on red mites, Pasteur pipette treated with acetone solution; settings: 24 hours after treatment, unfed adult red mites; for pest or weed control at 5000 ppm: Dermanyssus gallinae, read-out: Ratio of dead and affected mites; for Ratio of dead and affected mites: 5000 ppm
From the text: The tip of a Pasteur pipette was sealed with Parafilm, and an acetone solution (liquid agent) of each of the samples shown in Table 5 below diluted to a predetermined concentration was poured into the pipette through an upper portion thereof. One minute later, the Parafilm at the tip was detached, and the liquid agent was discharged. After the pipette was air dried, absorbent cotton was inserted to an upper end of the pipette, and 20 unfed adult red mites (Dermanyssus gallinae) were released into the pipette. After the tip was sealed with Hemato-Seal, the pipette was stored in the dark in an incubator at a temperature of 25 to 28° C. and a humidity of 40 to 60%. […] Then, the ratio (%) of dead and affected mites was calculated according to the following formula. Acequinocyl and fluacrypyrim were used as control drugs. The ratio (%) of dead and affected mites={(the number of dead mites+the number of affected mites)/(the number of survived mites+the number of affected mites+the number of dead mites)}×100

[2] = system: red mites (Dermanyssus gallinae); experiment: Test Example 1: controlling effect on red mites, Pasteur pipette treated with acetone solution; settings: unfed adult red mites
From the text: The tip of a Pasteur pipette was sealed with Parafilm, and an acetone solution (liquid agent) of each of the samples shown in Table 2 below diluted to a predetermined concentration was poured into the pipette through an upper portion thereof. One minute later, the Parafilm at the tip was detached, and the liquid agent was discharged. After the pipette was air dried, absorbent cotton was inserted to an upper end of the pipette, and 20 unfed adult red mites (Dermanyssus gallinae) were released into the pipette. After the tip was sealed with Hemato-Seal, the pipette was stored in the dark in an incubator at a temperature of 27 to 28° C. and a humidity of 50 to 60%. After 24, 48, and 72 hours had passed since the treatment, the mites were observed under a stereomicroscope to determine whether the mites were dead or alive and whether the mites were affected. Then, the ratio (%) of dead and affected mites was calculated according to the following formula. Spinosad, trichlorfon, and permethrin were used as control drugs. The ratio (%) of dead and affected mites={(the number of dead mites+the number of affected mites)/(the number of survived mites+the number of affected mites+the number of dead mites)}×100

[3] = system: northern fowl mites (Ornithonyssus sylviarum); experiment: Test Example 3: controlling effect on northern fowl mites, Pasteur pipette treated with acetone solution; settings: fed adult northern fowl mites
From the text: The tip of a Pasteur pipette was sealed with Parafilm, and an acetone solution (liquid agent) of each of the samples shown in Table 4 below diluted to a predetermined concentration was poured into the pipette through an upper portion thereof. One minute later, the Parafilm at the tip was detached, and the liquid agent was discharged. After the pipette was air dried, absorbent cotton was inserted to an upper end of the pipette, and 10 fed adult northern fowl mites (Ornithonyssus sylviarum) were released into the pipette. After the tip was sealed with Hemato-Seal, the pipette was stored in the dark in an incubator at 25° C. and at a humidity of 80%. After 2 and 24 hours had passed since the treatment, the mites were observed under a stereomicroscope to determine whether the mites were dead or alive and whether the mites were affected. Then, the ratio (%) of dead and affected mites was calculated. The ratio (%) of dead and affected mites={(the number of dead mites+the number of affected mites)/(the number of survived mites+the number of affected mites+the number of dead mites)}×100

C[C@@]1(c2ccc(Oc3ccccc3)cc2)OC(=O)N(Nc2ccccc2)C1=O (racemic) [Famoxadone]
pest or weed control at 5000 ppm [1]: 81.7%

CCCCCCCCCCCCC1=C(OC(C)=O)C(=O)c2ccccc2C1=O [Acequinocyl]
pest or weed control at 5000 ppm [1]: 93.3%

Cc1c(Br)c2ccc(F)cc2n1S(=O)(=O)c1ncn(S(=O)(=O)N(C)C)n1 [Amisulbrom]
Ratio of dead and affected mites [1]: 92.9%

CO/C=C(/C(=O)OC)c1ccccc1Oc1cc(Oc2ccccc2C#N)ncn1 [Azoxystrobin]
Ratio of dead and affected mites [1]: 55.2%

O=C(Nc1ccccc1-c1ccc(Cl)cc1)c1cccnc1Cl [Boscalid]
pest or weed control at 5000 ppm [1]: 44.5%

CC1=C(C(=O)Nc2ccccc2)SCCO1 [Carboxin]
pest or weed control at 5000 ppm [1]: 42.6%

CC(=O)Oc1c(C)c(C)nc2c(F)cc(C(C)(C)C)cc12 [Compound A]
Ratio of dead and affected mites ([2]; 200 ppm, 24 hours later): 7% | Ratio of dead and affected mites ([2]; 200 ppm, 48 hours later): 81% | Ratio of dead and affected mites ([2]; 200 ppm, 72 hours later): 98% | Ratio of dead and affected mites ([2]; 1000 ppm, 24 hours later): 100% | Ratio of dead and affected mites ([2]; 1000 ppm, 48 hours later): 100% | Ratio of dead and affected mites ([2]; 1000 ppm, 72 hours later): 100% | Ratio of dead and affected mites ([3]; 50 ppm, 2 hours later): 13% | Ratio of dead and affected mites ([3]; 50 ppm, 24 hours later): 92% | Ratio of dead and affected mites ([3]; 200 ppm, 2 hours later): 53% | Ratio of dead and affected mites ([3]; 200 ppm, 24 hours later): 100% | Ratio of dead and affected mites ([3]; 1000 ppm, 2 hours later): 100% | Ratio of dead and affected mites ([3]; 1000 ppm, 24 hours later): 100%

CC(=O)Oc1c(C)c(C)nc2c(C)cc(C(C)(C)C)cc12 [Compound B]
Ratio of dead and affected mites ([2]; 100 ppm, 24 hours later): 100% | Ratio of dead and affected mites ([2]; 100 ppm, 48 hours later): 100%

CC(=O)Oc1c(C)c(C)nc2c(C)cc(Br)cc12 [Compound C]
Ratio of dead and affected mites ([2]; 100 ppm, 24 hours later): 91% | Ratio of dead and affected mites ([2]; 100 ppm, 48 hours later): 95%

CC(=O)Oc1c(C)c(C)nc2c(C)cc(F)cc12 [Compound D]
Ratio of dead and affected mites ([2]; 100 ppm, 24 hours later): 100% | Ratio of dead and affected mites ([2]; 100 ppm, 48 hours later): 100%

COC(=O)Oc1c(C)c(C)nc2ccc(F)cc12 [Compound F]
Ratio of dead and affected mites ([2]; 50 ppm, 24 hours later): 55%

Cc1ccc(-c2c(Cl)nc(C#N)n2S(=O)(=O)N(C)C)cc1 [Cyazofamid]
pest or weed control at 5000 ppm [1]: 23.2%

CCC(Nc1ncnc(C)c1Cl)c1ccc(OC(F)F)cc1 (stereo not shown) [Diflumetorim]
pest or weed control at 5000 ppm [1]: 100%

Cc1nn(C)c(Oc2ccccc2)c1C=NOCc1ccc(C(=O)OC(C)(C)C)cc1 [Fenpyroximate]
pest or weed control at 5000 ppm [1]: 100%

C/C(=N/Nc1nc(C)cc(C)n1)c1ccccc1C [Ferimzone]
pest or weed control at 5000 ppm [1]: 53.5%

CO/C=C(/C(=O)OC)c1ccccc1COc1cc(C(F)(F)F)nc(OC(C)C)n1 [Fluacrypyrim]
pest or weed control at 5000 ppm [1]: 19.3%

O=[N+]([O-])c1cc(C(F)(F)F)c(Cl)c([N+](=O)[O-])c1Nc1ncc(C(F)(F)F)cc1Cl [Fluazinam]
pest or weed control at 5000 ppm [1]: 82.5%

CC1(C)C(C=C(Cl)c2ccc(Cl)cc2)C1C(=O)OC(C#N)c1ccc(F)c(Oc2ccccc2)c1 (stereo not shown) [Flumethrin]
Ratio of dead and affected mites ([3]; 5 ppm, 24 hours later): 67% | Ratio of dead and affected mites ([3]; 20 ppm, 24 hours later): 83% | Ratio of dead and affected mites ([3]; 50 ppm, 2 hours later): 100% | Ratio of dead and affected mites ([3]; 50 ppm, 24 hours later): 100%

O=C(NCCc1ncc(C(F)(F)F)cc1Cl)c1ccccc1C(F)(F)F [Fluopyram]
pest or weed control at 5000 ppm [1]: 50.5%

CO/N=C(/C1=NOCCO1)c1ccccc1Oc1ncnc(Oc2ccccc2Cl)c1F [Fluoxastrobin]
pest or weed control at 5000 ppm [1]: 66.5%

CC(C)Oc1cccc(NC(=O)c2ccccc2C(F)(F)F)c1 [Flutolanil]
pest or weed control at 5000 ppm [1]: 39.5%

Cn1cc(C(=O)Nc2ccccc2-c2cc(F)c(F)c(F)c2)c(C(F)F)n1 [Fluxapyroxad]
Ratio of dead and affected mites [1]: 61.3%

Cc1nn(C)c(Cl)c1C(=O)Nc1cccc2c1C(C)OC2(C)C (stereo not shown) [Furametpyr]
Ratio of dead and affected mites [1]: 56.1%

Cc1cc(OC(C)C)ccc1C(=O)C(C)(C)NC(=O)c1sccc1C [Isofetamid]
Ratio of dead and affected mites [1]: 17.4%

CO/N=C(/C(=O)OC)c1ccccc1COc1ccccc1C [Kresoxim-Methyl]
pest or weed control at 5000 ppm [1]: 52.8%

Cc1ccccc1C(=O)Nc1cccc(OC(C)C)c1 [Mepronil]
pest or weed control at 5000 ppm [1]: 52.1%

CNC(=O)/C(=N/OC)c1ccccc1Oc1ccccc1 [Metominostrobin]
pest or weed control at 5000 ppm [1]: 50%

CNC(=O)/C(=N/OC)c1ccccc1CO/N=C(C)/C(=N/OC)C(/C)=N/OC [Orysastrobin]
Ratio of dead and affected mites [1]: 82.6%

Cc1nn(C)c(F)c1C(=O)Nc1ccccc1C(C)CC(C)C (stereo not shown) [Penflufen]
Ratio of dead and affected mites [1]: 20.5%

CC(C)CC(C)c1sccc1NC(=O)c1cn(C)nc1C(F)(F)F (stereo not shown) [Penthiopyrad]
pest or weed control at 5000 ppm [1]: 35%

CC1(C)C(C=C(Cl)Cl)C1C(=O)OCc1cccc(Oc2ccccc2)c1 (stereo not shown) [Permethrin]
Ratio of dead and affected mites ([2]; 100 ppm, 48 hours later): 6%

CO/C=C(/C(=O)OC)c1ccccc1COc1cccc(C(F)(F)F)n1 [Picoxystrobin]
Ratio of dead and affected mites [1]: 80.5%

COC(=O)N(OC)c1ccccc1COc1ccn(-c2ccc(Cl)cc2)n1 [Pyraclostrobin]
pest or weed control at 5000 ppm [1]: 77.3%

COC(=O)NCc1cc(/C(C)=N/OCc2cccc(C)n2)ccc1Cl [Pyribencarb]
pest or weed control at 5000 ppm [1]: 31.1%

Cc1nc(C(F)(F)F)c(C(=O)Nc2c(Br)cc(OC(F)(F)F)cc2Br)s1 [Thifluzamide]
pest or weed control at 5000 ppm [1]: 63.2%

COP(=O)(OC)C(O)C(Cl)(Cl)Cl (stereo not shown) [Trichlorfon]
Ratio of dead and affected mites ([2]; 5000 ppm, 48 hours later): 84%

CON=C(C(=O)OC)c1ccccc1CON=C(C)c1cccc(C(F)(F)F)c1 [Trifloxystrobin]
pest or weed control at 5000 ppm [1]: 75.7%

Spinosad
Ratio of dead and affected mites ([2]; 200 ppm, 24 hours later): 33% | Ratio of dead and affected mites ([2]; 200 ppm, 48 hours later): 69% | Ratio of dead and affected mites ([2]; 200 ppm, 72 hours later): 72% | Ratio of dead and affected mites ([2]; 1000 ppm, 24 hours later): 32% | Ratio of dead and affected mites ([2]; 1000 ppm, 48 hours later): 82% | Ratio of dead and affected mites ([2]; 1000 ppm, 72 hours later): 95% | Ratio of dead and affected mites ([3]; 50 ppm, 2 hours later): 18% | Ratio of dead and affected mites ([3]; 50 ppm, 24 hours later): 80% | Ratio of dead and affected mites ([3]; 200 ppm, 2 hours later): 3% | Ratio of dead and affected mites ([3]; 200 ppm, 24 hours later): 94%
